Legend:
[1] = target: T1, human mAChR M1 (Homo sapiens, UniProt P11229); assay: mAChR M1 cell-based functional assay (calcium mobilization), agonist activity upon compound addition; details: CHO-K1 cells expressing hM1; for EC50: compound alone, before acetylcholine addition; for Emax: relative to the maximum for acetylcholine
T1 construct: host or cells: CHO-K1 cells (ATCC), stably transfected using Lipofectamine2000
T1 sequence (P11229 1-460): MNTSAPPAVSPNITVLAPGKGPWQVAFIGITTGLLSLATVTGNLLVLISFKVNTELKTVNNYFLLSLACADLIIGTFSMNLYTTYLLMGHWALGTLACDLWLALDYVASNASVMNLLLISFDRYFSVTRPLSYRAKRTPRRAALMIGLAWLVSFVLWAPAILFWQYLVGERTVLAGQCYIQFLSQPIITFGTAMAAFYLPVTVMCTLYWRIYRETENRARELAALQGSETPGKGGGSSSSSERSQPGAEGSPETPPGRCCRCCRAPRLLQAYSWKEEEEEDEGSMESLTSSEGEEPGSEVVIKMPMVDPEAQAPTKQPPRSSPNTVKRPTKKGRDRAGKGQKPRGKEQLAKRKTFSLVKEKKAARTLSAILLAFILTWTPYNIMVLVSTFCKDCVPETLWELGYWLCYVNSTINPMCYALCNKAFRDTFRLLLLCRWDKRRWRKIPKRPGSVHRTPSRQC
Outline: (§1)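 CHO-K1 cells stably expressing hM1, loaded with Fluo-4 AM; calcium flux read on FDSS 6000. Compound (11-point, 1:3 CRC) added at 4 s, EC20 acetylcholine at 144 s, EC80 at 230 s; agonism from response to compound alone, PAM from increase in EC20 response; Emax relative to acetylcholine maximum, four-parameter fit.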

[2] = target: T1, human mAChR M1; assay: mAChR M1 cell-based functional assay (calcium mobilization), PAM activity: increase in the EC20 acetylcholine response; details: CHO-K1 cells expressing hM1; potentiation of EC20 acetylcholine response
Outline: as §1

Row | EC50 [1] [µM] | Emax [1] [%] | EC50 [2] [µM] | Emax [2] [%] | Structure (SMILES)
1 | > 10 | < 5 | ≥ 10 | 26 | CC[C@H](C)[C@@H](CO)NC(=O)c1cn(Cc2ccc(-c3cnn(C)c3)cc2F)c(=O)c2nccnc12 [Compound A83, 6-(2-fluoro-4-(1-methyl-1H-pyrazol-4-yl)benzyl)-N-((2S,3S)-1-hydroxy-3-methylpentan-2-yl)-5-oxo-5,6-dihydropyrido[3,4-b]pyrazine-8-carboxamide]
2 | > 10 | < 5 | ≥ 10 | 40 | Cn1cc2c(-c3cc(F)c(Cn4cc(C(=O)N[C@H]5CCOC[C@@H]5O)c5ncncc5c4=O)c(F)c3)cccc2n1 [Compound A84, 6-(2,6-difluoro-4-(2-methyl-2H-indazol-4-yl)benzyl)-N-((3R,4S)-3-hydroxytetrahydro-2H-pyran-4-yl)-5-oxo-5,6-dihydropyrido[4,3-d]pyrimidine-8-carboxamide]
3 | > 10 | < 5 | ≥ 10 | 41 | Cn1cc2c(-c3cc(F)c(Cn4cc(C(=O)N[C@H]5CCCCC[C@@H]5O)c5ncncc5c4=O)c(F)c3)cccc2n1 [Compound A85, 6-(2,6-difluoro-4-(2-methyl-2H-indazol-4-yl)benzyl)-N-((1S,2S)-2-hydroxycycloheptyl)-5-oxo-5,6-dihydropyrido[4,3-d]pyrimidine-8-carboxamide]
4 | > 10 | < 5 | 0.37 | 52 | Cn1cc(-c2ccc(Cn3cc(C(=O)N[C@H]4CCCC[C@@H]4O)c4ncccc4c3=O)cc2)cn1 [Compound A86, N-((1S,2S)-2-hydroxycyclohexyl)-6-(4-(1-methyl-1H-pyrazol-4-yl)benzyl)-5-oxo-5,6-dihydro-1,6-naphthyridine-8-carboxamide]
5 | > 10 | < 5 | 0.82 | 44 | Cn1cc(-c2ccc(Cn3cc(C(=O)N[C@H]4CCCCC[C@@H]4O)c4ncccc4c3=O)cc2)cn1 [Compound A87, N-((1S,2S)-2-hydroxycycloheptyl)-6-(4-(1-methyl-1H-pyrazol-4-yl)benzyl)-5-oxo-5,6-dihydro-1,6-naphthyridine-8-carboxamide]
6 | > 10 | < 5 | ≥ 10 | 40 | Cn1cc2c(-c3cc(F)c(Cn4cc(C(=O)N[C@H]5CCCC[C@@H]5O)c5ncncc5c4=O)c(F)c3)cccc2n1 [Compound A88, 6-(2,6-Difluoro-4-(2-methyl-2H-indazol-4-yl)benzyl)-N-((1S,2S)-2-hydroxycyclohexyl)-5-oxo-5,6-dihydropyrido[4,3-d]pyrimidine-8-carboxamide]
7 | > 10 | < 5 | ≥ 10 | 51 | Cn1cc(-c2ccc(Cn3cc(C(=O)N[C@H]4CCCC[C@@H]4O)c4ncncc4c3=O)c(F)c2)cn1 [Compound A89, 6-(2-fluoro-4-(1-methyl-1H-pyrazol-4-yl)benzyl)-N-((1S,2S)-2-hydroxycyclohexyl)-5-oxo-5,6-dihydropyrido[4,3-d]pyrimidine-8-carboxamide]
8 | > 10 | < 5 | ≥ 10 | 47 | Cn1cc(-c2ccc(Cn3cc(C(=O)N[C@H]4CCOC[C@@H]4O)c4ncncc4c3=O)c(F)c2)cn1 [Compound A90, 6-(2-fluoro-4-(1-methyl-1H-pyrazol-4-yl)benzyl)-N-((3R,4S)-3-hydroxytetrahydro-2H-pyran-4-yl)-5-oxo-5,6-dihydropyrido[4,3-d]pyrimidine-8-carboxamide]
9 | > 10 | < 5 | ≥ 10 | 34 | Cn1cc(-c2ccc(Cn3cc(C(=O)N[C@H]4CCCCC[C@@H]4O)c4ncncc4c3=O)c(F)c2)cn1 [Compound A91, 6-(2-fluoro-4-(1-methyl-1H-pyrazol-4-yl)benzyl)-N-((1S,2S)-2-hydroxycycloheptyl)-5-oxo-5,6-dihydropyrido[4,3-d]pyrimidine-8-carboxamide]
10 | 3 | 55 | 0.13 | 67 | Cn1ccc(-c2ccc(Cn3cc(C(=O)N[C@H]4CCOC[C@@H]4O)c4nccn4c3=O)c(F)c2)n1 [Compound B1, 6-(2-fluoro-4-(1-methyl-1H-pyrazol-3-yl)benzyl)-N-((3R,4S)-3-hydroxytetrahydro-2H-pyran-4-yl)-5-oxo-5,6-dihydroimidazo[1,2-c]pyrimidine-8-carboxamide]
11 | 3.7 | 60 | 0.096 | 68 | Cn1ccc(-c2ccc(Cn3cc(C(=O)N[C@H]4CCCC[C@@H]4O)c4nccn4c3=O)c(F)c2)n1 [Compound B2, 6-(2-fluoro-4-(1-methyl-1H-pyrazol-3-yl)benzyl)-N-((1S,2S)-2-hydroxycyclohexyl)-5-oxo-5,6-dihydroimidazo[1,2-c]pyrimidine-8-carboxamide]
12 |  | 33 | 0.54 | 67 | Cn1ccc(-c2ccc(Cn3cc(C(=O)N[C@H]4CCC[C@@H]4O)c4nccn4c3=O)c(F)c2)n1 [Compound B3, 6-(2-fluoro-4-(1-methyl-1H-pyrazol-3-yl)benzyl)-N-((1S,2S)-2-hydroxycyclopentyl)-5-oxo-5,6-dihydroimidazo[1,2-c]pyrimidine-8-carboxamide]
13 | > 10 | < 5 | 3.22 | 52 | Cn1ccc(-c2ccc(Cn3cc(C(=O)N[C@@H]4CC[C@H]4O)c4nccn4c3=O)c(F)c2)n1 [Compound B4, 6-(2-fluoro-4-(1-methyl-1H-pyrazol-3-yl)benzyl)-N-((1R,2R)-2-hydroxycyclobutyl)-5-oxo-5,6-dihydroimidazo[1,2-c]pyrimidine-8-carboxamide]
14 | 0.15 | 62 | 0.046 | 68 | Cn1cc(-c2ccc(Cn3cc(C(=O)N[C@H]4CCOC[C@@H]4O)c4nccn4c3=O)c(F)c2)cn1 [Compound B5, 6-(2-fluoro-4-(1-methyl-1H-pyrazol-4-yl)benzyl)-N-((3R,4S)-3-hydroxytetrahydro-2H-pyran-4-yl)-5-oxo-5,6-dihydroimidazo[1,2-c]pyrimidine-8-carboxamide]
15 | 1.54 | 63 | 0.037 | 74 | Cn1cc(-c2ccc(Cn3cc(C(=O)N[C@H]4CCCC[C@@H]4O)c4nccn4c3=O)c(F)c2)cn1 [Compound B6, 6-(2-fluoro-4-(1-methyl-1H-pyrazol-4-yl)benzyl)-N-((1S,2S)-2-hydroxycyclohexyl)-5-oxo-5,6-dihydroimidazo[1,2-c]pyrimidine-8-carboxamide]
16 |  | 48 | 0.24 | 73 | Cn1cc(-c2ccc(Cn3cc(C(=O)N[C@H]4CCC[C@@H]4O)c4nccn4c3=O)c(F)c2)cn1 [Compound B7, 6-(2-fluoro-4-(1-methyl-1H-pyrazol-4-yl)benzyl)-N-((1S,2S)-2-hydroxycyclopentyl)-5-oxo-5,6-dihydroimidazo[1,2-c]pyrimidine-8-carboxamide]
17 |  | 29 | 2 | 72 | Cn1cc(-c2ccc(Cn3cc(C(=O)N[C@@H]4CC[C@H]4O)c4nccn4c3=O)c(F)c2)cn1 [Compound B8, 6-(2-fluoro-4-(1-methyl-1H-pyrazol-4-yl)benzyl)-N-((1R,2R)-2-hydroxycyclobutyl)-5-oxo-5,6-dihydroimidazo[1,2-c]pyrimidine-8-carboxamide]
18 |  | 17 | 2.06 | 61 | Cn1cc(-c2ccc(Cn3cc(C(=O)NC4CC5(COC5)C4)c4nccn4c3=O)c(F)c2)cn1 [Compound B9, 6-(2-fluoro-4-(1-methyl-1H-pyrazol-4-yl)benzyl)-5-oxo-N-(2-oxaspiro[3.3]heptan-6-yl)-5,6-dihydroimidazo[1,2-c]pyrimidine-8-carboxamide]
19 |  | 41 | 0.48 | 60 | Cn1cc(-c2ccc(Cn3cc(C(=O)N[C@H]4CCOC[C@@H]4O)c4nccn4c3=O)cn2)cn1 [Compound B10, N-((3R,4S)-3-hydroxytetrahydro-2H-pyran-4-yl)-6-((6-(1-methyl-1H-pyrazol-4-yl)pyridin-3-yl)methyl)-5-oxo-5,6-dihydroimidazo[1,2-c]pyrimidine-8-carboxamide]
20 | 5 | 45 | 0.21 | 63 | Cn1cc(-c2ccc(Cn3cc(C(=O)N[C@H]4CCCC[C@@H]4O)c4nccn4c3=O)cn2)cn1 [Compound B11, N-((1S,2S)-2-hydroxycyclohexyl)-6-((6-(1-methyl-1H-pyrazol-4-yl)pyridin-3-yl)methyl)-5-oxo-5,6-dihydroimidazo[1,2-c]pyrimidine-8-carboxamide]
21 | 6.02 | 55 | 0.38 | 67 | O=C(N[C@H]1CCOC[C@@H]1O)c1cn(Cc2ccc(-n3cccn3)cc2)c(=O)n2ccnc12 [Compound B12, 6-(4-(1H-Pyrazol-1-yl)benzyl)-N-((3R,4S)-3-hydroxytetrahydro-2H-pyran-4-yl)-5-oxo-5,6-dihydroimidazo[1,2-c]pyrimidine-8-carboxamide]
